The source of these data is patent publication US20240327364A1, “THERAPEUTIC TARGETING OF GPR68 TO INDUCE FERROPTOSIS” (University Of Maryland, Baltimore, priority 2023, published 2024).

Where only a bound is given, the exact number is not on record here.

One experiment deals with T1, GPR91 (Homo sapiens, UniProt Q9BXA5).
T1 construct: host or cells: Chem-1 cells with promiscuous Gα15
Kind of experiment: GPCR Profiler. Type of experiment: cell-based.

The target in the next experiment is T2, FLT3(K663Q) (Homo sapiens, UniProt P36888, K663Q).
T2 construct: purchased DiscoveRx (Fremont, CA)
Kind of experiment: KinomeScan. Type of experiment: binding. To be noted: read-out: % Control.

The target in the next experiment is T3, PRKD2 (Homo sapiens, UniProt Q9BZL6).
T3 construct: purchased DiscoveRx (Fremont, CA)
As to the kind of experiment: KinomeScan. The note with it: read-out: % Control. Type of experiment: binding.

A further experiment has as its target T4, FLT3(R834Q) (Homo sapiens, UniProt P36888, R834Q).
T4 construct: purchased DiscoveRx (Fremont, CA)
Kind of experiment: KinomeScan. Type of experiment: binding. The note with it: read-out: % Control.

The next experiment has as its target T5, EPHB4 (Homo sapiens, UniProt P54760).
T5 construct: purchased DiscoveRx (Fremont, CA)
Kind of experiment: KinomeScan. Type of experiment: binding. The note with it: read-out: % Control.

For the next experiment, the target named is T6, SYK (Homo sapiens, UniProt P43405).
T6 construct: purchased DiscoveRx (Fremont, CA)
As to the kind of experiment: KinomeScan. The note with it: read-out: % Control. Type of experiment: binding.

Another experiment concerns the target T7, GIP (Homo sapiens, UniProt P48546).
T7 construct: host or cells: Chem-1 cells expressing Gα15
Kind of experiment: GPCR Profiler. Type of experiment: cell-based.

A further experiment deals with T8, GPR41 (Homo sapiens, UniProt O14843).
T8 construct: host or cells: Chem-1 cells with promiscuous Gα15
Kind of experiment: GPCR Profiler. It is filed as cell-based.

A further experiment deals with T9, RIPK2 (Homo sapiens, UniProt O43353).
T9 construct: purchased DiscoveRx (Fremont, CA)
Kind of experiment: KinomeScan. Type of experiment: binding. To be noted: read-out: % Control.

A further experiment addresses T10, TRH (Homo sapiens, UniProt P34981).
T10 construct: host or cells: Chem-1 cells with Gα15
As to the kind of experiment: GPCR Profiler. It is filed as cell-based.

The target in a further experiment is T11, ERBB2 (Homo sapiens, UniProt P04626).
T11 construct: purchased DiscoveRx (Fremont, CA)
Kind of experiment: KinomeScan. Type of experiment: binding. The note with it: read-out: % Control.

The target of the next experiment is T12, ERK5 (Homo sapiens, UniProt Q13164).
T12 construct: purchased DiscoveRx (Fremont, CA)
Kind of experiment: KinomeScan. To be noted: read-out: % Control. Type of experiment: binding.

Another experiment relates to T-47D. As to the kind of experiment: Cell Titer-Glo viability, Breast cancer. Type of experiment: cell-based. The procedure:
OGM2 kills wide variety of cancer cell types. Cell sensitivity can be classified in to Very Sensitive (LC50<2 μM), Sensitive (LC50=2 to 10 μM), Mildly Sensitive (LC50>10 μM), and Refractory (no killing at 10 μM). The listed established cell were incubated with OGM2 at 2 μM or 10 μM for 72 hours under standard cell culture conditions, and relative cell number was assessed using Cell Titer-Glo Luminescent Cell Viability Assay (Promega™) following the manufacturer's instructions. Luminescence was determined using a Cytation 5 reader and Gen5 software package (BioTek™).
Cancer cells, which are very sensitive to killing by OGM2 (LCs <2 μM), with reported mRNA expression of GPR68 and the related proton sensing receptor GPR4. LC50's (concentrations causing 50% lethality) were determined using CellTiter-Glo (Promega™, G7570). Cells were plated in 12-well plates (CELLTREAT Scientific Products, 229112) in 1 ml of DMEM with high glucose, GlutaMAX, HEPES, or RPMI 1640 with Penicillin-Streptomycin (ThermoFisher™, 10564029, 11875119 and 15140122) and 10% FBS. Cells were incubated overnight at 37° C. in 5% CO2. Then 1 mL of fresh media was added with DMSO, OGM, or positive control (Erastin; APExBIO Technology, LLC, B1524) and cells incubated for 3 days. On the third day, all media was removed, cells were rinsed with 1×PBS, PBS was removed, and 200 μL of 1× Passive Lysis Buffer (Promega™, E1941) was added to each well. […]. Subsequently, 20 μL of lysate was added to 100 μL CellTiter-Glo™ reagent on a LUMITRAC 200 plate (Greiner™ bio-one, 82050-726). Plates were briefly spun down and read on a GloMax-Multi Detection System (Promega™).
The cells listed in the tables above were incubated with OGM2 at 2 μM or 10 μM for 72 hours under standard cell culture conditions, and relative cell number was assessed using Cell Titer-Glo Luminescent Cell Viability Assay (Promega™) following the manufacturer's instructions. Luminescence was determined using a Cytation 5 reader and Gen5 software package (BioTek™). RNA expression of GPR68 and GPR4 in the corresponding cancer cell lines are listed, according to the publicly available The Human Protein Atlas version 22.0 and Ensembl version 103.38 (see proteinatlas.org). The consensus normalized expression value (“nTPM”=normalize transcript per million) was calculated as the maximum nTPM value for each gene in the two data sources.

T10 sequence (P34981 whole entry): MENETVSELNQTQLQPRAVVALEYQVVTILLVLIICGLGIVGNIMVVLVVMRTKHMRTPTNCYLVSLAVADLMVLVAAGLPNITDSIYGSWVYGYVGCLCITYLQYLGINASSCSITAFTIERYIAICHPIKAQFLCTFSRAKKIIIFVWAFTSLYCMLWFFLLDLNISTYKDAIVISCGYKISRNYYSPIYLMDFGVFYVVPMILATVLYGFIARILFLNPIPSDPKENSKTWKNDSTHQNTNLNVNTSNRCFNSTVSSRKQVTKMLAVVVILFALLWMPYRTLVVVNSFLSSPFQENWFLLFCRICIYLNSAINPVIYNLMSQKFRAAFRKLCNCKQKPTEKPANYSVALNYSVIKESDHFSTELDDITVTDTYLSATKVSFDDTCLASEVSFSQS
T7 sequence (P48546 22-466): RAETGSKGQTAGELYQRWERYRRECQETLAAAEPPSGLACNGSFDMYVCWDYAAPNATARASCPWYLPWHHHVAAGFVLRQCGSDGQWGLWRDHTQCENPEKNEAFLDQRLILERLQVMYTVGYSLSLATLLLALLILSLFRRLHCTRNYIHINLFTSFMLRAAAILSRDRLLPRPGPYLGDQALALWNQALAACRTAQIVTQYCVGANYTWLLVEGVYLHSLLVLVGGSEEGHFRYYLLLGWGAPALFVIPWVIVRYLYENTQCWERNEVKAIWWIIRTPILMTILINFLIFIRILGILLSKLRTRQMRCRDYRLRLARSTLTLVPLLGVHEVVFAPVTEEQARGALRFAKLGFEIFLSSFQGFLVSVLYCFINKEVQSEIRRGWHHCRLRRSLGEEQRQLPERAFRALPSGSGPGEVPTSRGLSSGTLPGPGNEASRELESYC
T1 sequence (Q9BXA5 whole entry, species assumed): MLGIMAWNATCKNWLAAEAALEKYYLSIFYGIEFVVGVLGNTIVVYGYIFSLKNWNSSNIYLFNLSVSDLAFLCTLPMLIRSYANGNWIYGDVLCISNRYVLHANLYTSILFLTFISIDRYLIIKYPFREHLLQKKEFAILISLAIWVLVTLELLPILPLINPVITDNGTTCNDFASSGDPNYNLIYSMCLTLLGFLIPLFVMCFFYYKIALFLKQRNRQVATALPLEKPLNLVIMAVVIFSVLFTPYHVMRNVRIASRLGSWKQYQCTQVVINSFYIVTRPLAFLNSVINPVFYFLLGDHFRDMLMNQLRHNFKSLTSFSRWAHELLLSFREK
T8 sequence (O14843 whole entry, species assumed): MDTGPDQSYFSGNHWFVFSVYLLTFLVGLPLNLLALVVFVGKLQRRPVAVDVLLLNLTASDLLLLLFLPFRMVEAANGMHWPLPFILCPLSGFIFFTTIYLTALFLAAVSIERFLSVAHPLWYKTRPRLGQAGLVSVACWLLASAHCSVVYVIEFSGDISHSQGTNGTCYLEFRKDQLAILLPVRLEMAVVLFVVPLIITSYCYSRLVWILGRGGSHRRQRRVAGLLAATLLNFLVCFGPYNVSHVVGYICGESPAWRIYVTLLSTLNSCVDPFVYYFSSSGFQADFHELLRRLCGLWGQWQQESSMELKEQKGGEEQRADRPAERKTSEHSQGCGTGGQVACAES
T9 sequence (O43353 whole entry): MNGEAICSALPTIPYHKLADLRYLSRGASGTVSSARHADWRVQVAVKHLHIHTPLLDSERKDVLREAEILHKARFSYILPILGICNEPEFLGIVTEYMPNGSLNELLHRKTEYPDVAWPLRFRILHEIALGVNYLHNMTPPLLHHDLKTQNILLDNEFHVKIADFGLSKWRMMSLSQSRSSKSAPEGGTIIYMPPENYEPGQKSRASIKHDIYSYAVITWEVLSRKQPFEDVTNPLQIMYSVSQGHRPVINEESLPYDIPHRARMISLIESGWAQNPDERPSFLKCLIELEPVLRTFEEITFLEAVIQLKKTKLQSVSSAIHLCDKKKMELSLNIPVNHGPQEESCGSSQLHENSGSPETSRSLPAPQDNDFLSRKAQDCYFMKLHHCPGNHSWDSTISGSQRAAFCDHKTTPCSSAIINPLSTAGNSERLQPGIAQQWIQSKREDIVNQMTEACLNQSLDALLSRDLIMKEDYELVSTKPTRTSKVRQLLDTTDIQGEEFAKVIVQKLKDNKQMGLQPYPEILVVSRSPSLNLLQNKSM
T11 sequence (P04626 23-1255): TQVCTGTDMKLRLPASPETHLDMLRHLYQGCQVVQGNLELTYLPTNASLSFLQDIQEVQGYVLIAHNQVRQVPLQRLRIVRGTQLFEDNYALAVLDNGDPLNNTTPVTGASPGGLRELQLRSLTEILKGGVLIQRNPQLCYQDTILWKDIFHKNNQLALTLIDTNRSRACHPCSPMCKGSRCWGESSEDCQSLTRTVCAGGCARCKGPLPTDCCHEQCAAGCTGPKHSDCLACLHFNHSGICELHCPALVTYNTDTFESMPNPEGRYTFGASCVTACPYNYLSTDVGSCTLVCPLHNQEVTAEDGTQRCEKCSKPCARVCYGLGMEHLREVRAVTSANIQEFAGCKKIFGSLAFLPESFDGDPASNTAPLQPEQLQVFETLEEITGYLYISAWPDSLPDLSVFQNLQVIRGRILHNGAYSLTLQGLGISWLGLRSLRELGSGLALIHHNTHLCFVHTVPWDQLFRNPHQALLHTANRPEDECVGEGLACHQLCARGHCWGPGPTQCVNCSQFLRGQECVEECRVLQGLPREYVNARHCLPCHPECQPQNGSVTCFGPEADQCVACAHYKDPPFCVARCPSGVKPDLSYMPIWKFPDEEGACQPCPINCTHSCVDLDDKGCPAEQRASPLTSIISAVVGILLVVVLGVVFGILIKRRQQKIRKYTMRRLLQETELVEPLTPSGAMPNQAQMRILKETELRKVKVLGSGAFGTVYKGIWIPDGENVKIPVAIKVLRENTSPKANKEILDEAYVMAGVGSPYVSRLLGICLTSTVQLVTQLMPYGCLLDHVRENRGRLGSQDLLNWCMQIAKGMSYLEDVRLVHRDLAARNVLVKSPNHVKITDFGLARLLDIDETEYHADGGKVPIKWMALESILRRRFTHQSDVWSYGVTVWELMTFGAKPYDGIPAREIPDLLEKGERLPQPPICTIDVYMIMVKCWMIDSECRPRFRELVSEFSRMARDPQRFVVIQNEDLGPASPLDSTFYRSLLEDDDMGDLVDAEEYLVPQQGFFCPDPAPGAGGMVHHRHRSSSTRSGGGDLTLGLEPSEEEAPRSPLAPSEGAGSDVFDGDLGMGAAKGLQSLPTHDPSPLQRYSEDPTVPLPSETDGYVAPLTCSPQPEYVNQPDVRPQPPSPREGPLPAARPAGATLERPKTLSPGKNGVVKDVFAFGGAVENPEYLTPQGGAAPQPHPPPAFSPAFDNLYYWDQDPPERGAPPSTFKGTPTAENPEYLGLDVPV
T3 sequence (Q9BZL6 whole entry): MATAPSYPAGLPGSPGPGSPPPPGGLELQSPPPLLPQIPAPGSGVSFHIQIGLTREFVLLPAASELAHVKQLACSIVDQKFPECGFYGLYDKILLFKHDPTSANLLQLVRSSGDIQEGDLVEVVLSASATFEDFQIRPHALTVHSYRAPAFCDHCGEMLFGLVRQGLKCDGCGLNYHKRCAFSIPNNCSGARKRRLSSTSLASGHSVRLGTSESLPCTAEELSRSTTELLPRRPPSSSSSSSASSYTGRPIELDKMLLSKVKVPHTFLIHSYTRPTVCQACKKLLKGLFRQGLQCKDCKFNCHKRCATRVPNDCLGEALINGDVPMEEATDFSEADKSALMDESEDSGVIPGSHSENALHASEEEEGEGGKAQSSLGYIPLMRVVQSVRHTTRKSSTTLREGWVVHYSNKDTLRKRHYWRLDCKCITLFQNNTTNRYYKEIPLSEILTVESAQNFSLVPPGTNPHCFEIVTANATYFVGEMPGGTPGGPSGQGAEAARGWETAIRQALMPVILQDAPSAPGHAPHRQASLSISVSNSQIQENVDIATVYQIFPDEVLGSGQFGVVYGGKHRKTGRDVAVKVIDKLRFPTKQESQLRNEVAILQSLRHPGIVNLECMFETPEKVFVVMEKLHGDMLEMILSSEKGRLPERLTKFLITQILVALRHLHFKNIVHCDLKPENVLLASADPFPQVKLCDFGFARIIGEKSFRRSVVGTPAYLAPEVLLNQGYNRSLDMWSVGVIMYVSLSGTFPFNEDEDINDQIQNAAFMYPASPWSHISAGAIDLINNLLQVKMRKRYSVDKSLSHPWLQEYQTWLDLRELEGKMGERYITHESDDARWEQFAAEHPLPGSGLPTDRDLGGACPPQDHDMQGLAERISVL
T12 sequence (Q13164 whole entry): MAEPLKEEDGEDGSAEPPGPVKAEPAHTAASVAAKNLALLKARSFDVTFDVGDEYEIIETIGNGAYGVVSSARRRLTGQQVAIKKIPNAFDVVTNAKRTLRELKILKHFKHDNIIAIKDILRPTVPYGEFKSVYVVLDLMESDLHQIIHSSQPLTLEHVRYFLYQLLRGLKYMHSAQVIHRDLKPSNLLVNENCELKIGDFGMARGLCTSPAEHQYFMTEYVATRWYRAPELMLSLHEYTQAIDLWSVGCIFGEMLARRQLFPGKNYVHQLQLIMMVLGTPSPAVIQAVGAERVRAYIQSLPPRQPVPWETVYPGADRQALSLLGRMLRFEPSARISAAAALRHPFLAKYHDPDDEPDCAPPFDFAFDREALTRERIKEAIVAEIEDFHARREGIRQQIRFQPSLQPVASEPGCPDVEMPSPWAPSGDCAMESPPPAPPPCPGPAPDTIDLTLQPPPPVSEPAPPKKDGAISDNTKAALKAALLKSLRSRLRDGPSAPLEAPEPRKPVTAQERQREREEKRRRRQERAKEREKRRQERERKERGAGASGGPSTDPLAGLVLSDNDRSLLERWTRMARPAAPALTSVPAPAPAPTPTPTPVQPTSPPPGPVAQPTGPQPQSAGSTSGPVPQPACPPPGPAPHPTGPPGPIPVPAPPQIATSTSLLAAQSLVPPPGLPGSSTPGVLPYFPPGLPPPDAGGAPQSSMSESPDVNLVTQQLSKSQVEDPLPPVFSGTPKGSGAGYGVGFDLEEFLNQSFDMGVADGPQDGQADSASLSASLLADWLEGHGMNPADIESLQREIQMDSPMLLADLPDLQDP

As to `CCc1ccc2c(c1)C1(NN=C(c3cccc4ccccc34)S1)C(=O)N2` (centres unmarked) [OGM1, 5-ethyl-5′-naphthalen-1-ylspiro[1H-indole-3,2′-3H-1,3,4-thiadiazole]-2-one], the Antagonism on GPR91 (10 uM) was −5.4; on GIP (10 uM), 0.2; at GPR41 (10 uM), 1.9; on TRH (10 uM), 1.4. The Agonism came to 1.2 on GPR91 (12.5 uM), 1.5 on GIP (12.5 uM), 0.4 on GPR41 (12.5 uM) and 0.1 at TRH (12.5 uM). Moreover, the remaining binding at 10 µM at FLT3(K663Q) was 100%; at PRKD2, 87%; at FLT3(R834Q) it was 100%; on EPHB4, 100%; on SYK it was 98%; on RIPK2, 100%. The remaining binding at 10 µM at ERBB2 was determined as 65%; at ERK5, 89%.

As for `CCc1ccc2c(c1)C1(NN=C(c3ccccc3)S1)C(=O)N2` (centres unmarked) [OGM2], the Class result in the experiment on T-47D is on record as “Mildly”. Further, in the experiment with T-47D (72 hours), the “% Survival 2 μM OGM” value came to 76.4% and the “% Survival 10 μM OGM” value stood at 61.7%. Besides, the CC50 in the experiment with T-47D (Homo sapiens, T47D, 72 hours, read-out: LC50 (the source's name)) is over 10 µM.
